Source: article PMC8042727, “Apoptosis-like cell death upon kinetoplastid induction by compounds isolated from the brown algae Dictyota spiralis” (Parasites & Vectors, 2021)

Assays:
Format in all cases: cell-based
[1] = test system: Leishmania amazonensis amastigotes; experiment: Anti-amastigotes assay (intra-macrophagic stage, J774A.1); conditions: for Selectivity index: CC50 murine macrophages / IC50 amastigote; for IC50: J774.A1, Leishmania amazonensis, intracellular in J774A.1, read-out: IC50: amastigote
Protocol: The three molecules 1-3 were tested against the intra-macrophagic stage of L. amazonensis as previously described. Briefly, in a 96-well, flat-bottom plate, macrophages of the J774A.1 cell line (American Type Culture Collection #TIB-67) were cultured at a density of 2 × 10^5 cells/ml in RPMI 1640 medium supplemented with 10% heat-inactivated FBS and incubated for 1 h at 37 °C in a 5% CO2 atmosphere to allow almost complete attachment of the cells. The macrophages were then infected with L. amazonensis promastigotes in the stationary phase (7-day-old culture) at a ratio of 1:10 (macrophage:parasite) at a concentration of 2 × 10^6 cells/ml and incubated at 37 °C in 5% CO2 for 24 h. Wells were washed with medium to remove external promastigotes. Thereafter, the infected macrophages were treated with the serially diluted concentrations of the pure compounds for 24 h, following which the medium was removed carefully and replaced by 30 μl of new medium containing 0.05% sodium dodecyl sulfate and the plate shaken for 30 s. Subsequently, 170 μl of Schneider’s medium was added to each well to give a final volume of 200 μl, and 20 μl of AlamarBlue® was added to the plate; the plate was then incubated at 26 °C for 72 h, following which the plates were analyzed using the same protocol as for the promastigotes assay.

[2] = Cytotoxicity on macrophages (AlamarBlue, 24 h); conditions: mouse, J774A.1 macrophages, J774A.1, 24 h, read-out: CC50: murine macrophages
Protocol: Cytotoxicity of the tested molecules was evaluated after 24 h using macrophages of the murine cell line J774.A1 (American Type Culture Collection #TIB-67). The cells were maintained in DMEM medium at 37 °C in a 5% CO2 humidified incubator. The viability of the macrophages was determined with the AlamarBlue assay and the emitted fluorescence was assayed in an Enspire microplate reader (PerkinElmer Inc.) at 570/585 nm. Briefly, 50 µl of macrophages was placed in a 96-well flat bottom plate at a density of 2 × 10^5/ml in RPMI medium supplemented with 10% FBS without phenol. Cells were allowed to adhere for 15 min, and their progress was checked using a Leika inverted microscope (Leika Camera AG, Wetzlar, Germany). At the same time, a serially dilution of the test compounds was made in a deep 96-well plate with the same medium, and then 50 µl of each serially diluted molecule was added to each well of the 96-well flat bottom plate. Finally, 10% of AlamarBlue was added to each well. The plates were incubated at 37 °C in 5% CO2 for 24 h. Dose–response curves were plotted and the 50% cytotoxic concentrations (CC50) were obtained. The analyses were performed in triplicate.

[3] = test system: Leishmania amazonensis promastigotes; experiment: DNA condensation assay (Hoechst 33342 / PI); conditions: L. amazonensis promastigotes, IC90, 24 h
Protocol: (§1) Hoechst dye is a blue-fluorescent dye that stains condensed chromatin of apoptotic cells. To detect DNA condensation, the chromatin condensation/dead cell apoptosis kit was used (Invitrogen, Thermo Fisher Scientific, Waltham, MA, USA). Cells were incubated in the presence of the compounds to be tested at IC90. The IC90 values were determined using nonlinear regression of the AlamarBlue® curve. After 24 h of incubation, cells were harvested and resuspended in medium, following which 1 μl of Hoechst 33342 stock solution was added to parasites and incubated for 20 min. Results were analyzed by cell imaging using the Evos FL cell imaging system (Thermo Fisher Scientific). The experiments were repeated using a double-stain apoptosis detection kit (Hoechst 33342/PI; Thermo Fisher Scientific). […] A positive control was also tested: miltefosine (L. amazonensis) and benznidazole (T. cruzi).
DNA condensation is an important cellular event, providing evidence of apoptotic cell death. Hoechst dye is a blue-fluorescent dye that stains condensed chromatin. […] Also, using propidium iodine (PI), it is possible to distinguish dead cells, which stain red when PI penetrates the nucleus. The results of staining were evaluated using cell imaging. Different microscopy images are regrouped in Fig. 2 (for L. amazonensis) and Fig. 3 (for T. cruzi). […] A clear reduction in cell number is also evident.

[4] = test system: Leishmania amazonensis promastigotes; experiment: Anti-promastigotes assay (AlamarBlue, 72 h); conditions: for IC90: nonlinear regression of AlamarBlue curve, read-out: IC90 Leishmania amazonensis: promastigote; for IC50: 72 h, read-out: IC50: promastigote
Protocol: Experiments including in vitro activity assays of isolated compounds 1–3 were performed against the promastigote and amastigote stages of Leishmania amazonensis (MHOM/BR/77/LTB0016) and the epimastigote stage of Trypanosoma cruzi (Y strain). Promastigotes of L. amazonensis were cultured in Schneider’s medium (Sigma-Aldrich, St. Louis, MO, USA). Typanosoma cruzi strain Y was cultured in liver Infusion tryptose (LIT) medium.
The bioassay was performed using the AlamarBlue® method as previously described. Promastigotes of L. amazonensis were grown at 26 °C in RPMI 1640 modified medium (Gibco BRL Life Technologies Inc., Gaithersburg, MD, USA) and supplemented with 10% heat-inactivated fetal bovine serum (FBS). Cultures in the logarithmic phase were seeded in sterilized 96-well microtiter plates (Corning™, Corning, NY, USA) (10^6 parasites/ml) containing the samples dissolved in 1% DMSO at the suitable concentration to be tested in serial dilutions, and Leishmania medium (RPMI 1640) was used to reach a final volume of 200 μl per well; then 10% of AlamarBlue® was added to the entire plate. After an incubation of 72 h, the plate was checked visually using an inverted microscope, then analyzed using an Enspire multimode plate reader (PerkinElmer, Inc., Waltham, MA, USA) at excitation and emission wavelengths of 570 and 585 nm, respectively. Dose–response curves were plotted, and the concentration at which one half of the maximal inhibitory effect was obtained (IC50) was determined. The analyses were performed in triplicate.
as §1

Trypanosoma cruzi = experiment: ATP level (CellTiter-Glo); conditions: T. cruzi, IC90, 24 h, relative to negative control
Protocol: (§2) The CellTiter-Glo® luminescent cell viability assay (Promega, WI, USA) was used to quantify the adenosine triphosphate (ATP) concentration. Cells of the kinetoplastid strains (for both L. amazonensis [2 × 10^6 cells/ml] and T. cruzi [5 × 10^5cells/ml]) were incubated for 24 h with the compounds to be tested, at IC90 and 26 °C. After incubation, the cells were centrifuged and resuspended in 100 μl. To this volume, we added 100 μl of the reactive in white 96-well plates. After incubation, the luminescence signal was measured using the Enspire multimode plate reader. The decrease in ATP level was expressed as a percentage relative to the negative control. Miltefosine and benznidazole were tested as the positive control for L. amazonensis and T. cruzi, respectively.

Leishmania amazonensis = experiment: ATP level (CellTiter-Glo); conditions: L. amazonensis, IC90, 24 h, relative to negative control
Protocol: as §2

IC50 [1] [µM] | IC90 [4] [µM] | IC50 [4] [µM] | SMILES | Selectivity index [1] | CC50 at 24 h [2] [µM] | chromatin condensation / cell death stage (Hoechst/PI staining) [3] | decrease in ATP concentration (Trypanosoma cruzi) [%] | loss of ATP concentration (Leishmania amazonensis) [%]
3.88 ± 0.17 | 74.9 | – | C=C(C)[C@H]1CC[C@]2(C)C[C@@H]3O[C@@]3(C)CC/C=C(\C)CC[C@@H]12 [Compound 3, 3,4-epoxy-7,18-dolabelladiene] | 18.02 | 69.98 ± 0.13 | late apoptotic stage | > 95 | –
2.03 ± 0.22 | 34.9 | 18.9 ± 0.42 | C=C1CC[C@@H]([C@@](C)(O)CCC=C(C)C)[C@@H](O)[C@@H]2C(C)=CC[C@@H]12 [Compound 2, dictyol E] | 25.56 | 52.1 ± 6.63 | late apoptotic stage | > 95 | 26.6
0.97 ± 0.13 | 39.5 | 18.9 ± 5.28 | CC(C)=CCC[C@](C)(O)[C@@H]1CC[C@@H](C)[C@@H]2CC=C(C)[C@H]2[C@@H]1O [Compound 1, pachydictyol C] | 37.76 | 37 ± 2.74 | – | > 70 | –
